Measured values reported in publication PMC5909415 (ACS nano, 2015).

How the values were obtained:
[1] = Blood bioavailability of avasimibe; assay type: in vivo, mice; conditions: nude, mouse, whole blood, po
PC3 tumors = assay: Anti-tumor effect, PC3 tumor xenograft; conditions: oral avasimibe 15 mg/kg daily by gavage, versus PBS
HSA = HSA (Homo sapiens, UniProt P02768); assay: Interaction between avasimibe and HSA; assay type: binding; conditions: avasimibe:HSA molar ratio 16:1, warfarin:HSA 10:1, warfarin fluorescence
[2] = Tissue distribution of avasimibe in PC3 tumor-bearing mice; assay type: in vivo; conditions: oral avasimibe 15 mg/kg, 2 hr
PC3 = assay: Cell viability assay; assay type: cell-based; conditions: Homo sapiens, PC-3, 72 h, read-out: IC50 of avasimin (containing avasimibe)
cancer and normal cells = assay: Cell viability assay; assay type: cell-based, human; conditions: 72 h

HSA, sequence (P02768 25-609): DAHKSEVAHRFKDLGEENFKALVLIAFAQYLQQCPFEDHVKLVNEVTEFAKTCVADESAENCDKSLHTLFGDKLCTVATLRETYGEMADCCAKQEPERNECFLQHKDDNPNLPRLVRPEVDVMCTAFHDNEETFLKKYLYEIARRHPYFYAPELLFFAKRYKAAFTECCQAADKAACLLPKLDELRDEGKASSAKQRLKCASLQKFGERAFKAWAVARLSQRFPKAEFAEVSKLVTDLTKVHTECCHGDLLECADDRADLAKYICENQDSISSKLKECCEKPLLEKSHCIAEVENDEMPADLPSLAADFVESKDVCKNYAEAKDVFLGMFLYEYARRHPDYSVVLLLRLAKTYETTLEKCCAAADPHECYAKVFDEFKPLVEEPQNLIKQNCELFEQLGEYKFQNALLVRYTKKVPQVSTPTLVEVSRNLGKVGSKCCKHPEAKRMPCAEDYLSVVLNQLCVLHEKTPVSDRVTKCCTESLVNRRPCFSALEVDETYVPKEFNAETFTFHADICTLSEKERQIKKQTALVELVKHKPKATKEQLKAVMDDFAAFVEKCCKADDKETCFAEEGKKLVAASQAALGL

AUC ([1]; 15 mg/kg) [ng·h/mL]	AUC ([1]; 100 mg/kg) [ng·h/mL]	replacement of warfarin at the primary binding site (site I) of HSA (HSA)	avasimibe in the tumor tissue [2]	IC50 (PC3) [µM]	Structure (SMILES)	anti-tumor effect in terms of tumor volume (PC3 tumors)	distribution of avasimibe to liver [2]	excretion of avasimibe through feces [2]	effect on viability of cancer and normal cells (cancer and normal cells)
14900	49900	complete replacement of warfarin	not detectable	8.5	CC(C)c1cc(C(C)C)c(CC(=O)NS(=O)(=O)Oc2c(C(C)C)cccc2C(C)C)c(C(C)C)c1 [avasimibe]	did not exhibit anti-tumor effect	most orally administered avasimibe was found in the liver tissue	considerable amount of avasimibe was excreted through the feces	–
–	–	–	–	–	N.N.[Cl][Pt][Cl] [cisplatin]	–	–	–	non-selective cytotoxic effects
–	–	–	–	–	Nc1ccn([C@@H]2O[C@H](CO)[C@@H](O)C2(F)F)c(=O)n1 [gemcitabine]	–	–	–	non-selective cytotoxic effects
